Structures are written as SMILES. Bounds are passed on as bounds.

For one assay, the target named is T1, FLT-1 (Homo sapiens, UniProt P17948).
T1 construct: purchased Millipore (assay service)
As to the kind of experiment: Millipore kinase assay, radiolabelled phosphopeptide filter binding, IC50 estimate. In kind it is biochemical. Particulars: estimated from inhibition at three compound concentrations; ATP at the Km. As to the method: (§1) Kinase assays at Millipore were performed using a radiolabelled phosphopeptide filter binding detection system, in duplicate, at each compound concentration. The ATP substrate concentration in the reactions was at the Km for each enzyme.
(§2) To allow for a more direct comparison of compound inhibition, an IC50 value was estimated from the inhibition determined at three compound concentrations. Several assumptions were made to allow this calculation using a 4 parameter non linear curve fit model, including full inhibition set at 100%, no inhibition set to 0%, and a curve fit parameter set at 1. The inflection point was reported as the estimated IC50.

A further assay deals with FGFR1. The assay is described as above. Type of assay: biochemical. As to conditions: estimated from inhibition at three compound concentrations; ATP at the Km. As to the method: as §1, §2
A further assay has as its target T2, PDGFRβ (Homo sapiens, UniProt P09619).
T2 construct: purchased Millipore (assay service)
Described as above. As to conditions: estimated from inhibition at three compound concentrations; ATP at the Km. In kind it is biochemical. The method, then: as §1, §2

For another assay, the system named is AMPKa. As to the kind of experiment: Kinase Selectivity Assay (CEREP, HTRF). In kind it is biochemical, human. The method, then:
(§3) kinase, ROCK2, RSK2, Src kinase, Syk, and TRKA. The % Inhibition was determined
A general note: Time-resolved FRET reads energy transfer from a long-lived donor to a nearby acceptor.

For another assay, the target named is TRKA (Homo sapiens, UniProt P04629). As to the kind of experiment: Millipore kinase assay, radiolabelled phosphopeptide filter binding, IC50 estimate. Type of assay: biochemical. Further details: purchased Millipore (assay service). Particulars: estimated from inhibition at three compound concentrations; ATP at the Km. The method, then:
as §1, §2

The next assay concerns the target Lyn (Homo sapiens, UniProt P07948). The description is as above. In kind it is biochemical. Also on record: purchased Millipore (assay service). Particulars: estimated from inhibition at three compound concentrations; ATP at the Km. The method, then: as §1, §2
In another assay the target is Ret (Homo sapiens, UniProt P07949). Described as above. In kind it is biochemical. Also on record: purchased Millipore (assay service). Particulars: estimated from inhibition at three compound concentrations; ATP at the Km. The method, then: as §1, §2
Ret, sequence (P07949 29-1114): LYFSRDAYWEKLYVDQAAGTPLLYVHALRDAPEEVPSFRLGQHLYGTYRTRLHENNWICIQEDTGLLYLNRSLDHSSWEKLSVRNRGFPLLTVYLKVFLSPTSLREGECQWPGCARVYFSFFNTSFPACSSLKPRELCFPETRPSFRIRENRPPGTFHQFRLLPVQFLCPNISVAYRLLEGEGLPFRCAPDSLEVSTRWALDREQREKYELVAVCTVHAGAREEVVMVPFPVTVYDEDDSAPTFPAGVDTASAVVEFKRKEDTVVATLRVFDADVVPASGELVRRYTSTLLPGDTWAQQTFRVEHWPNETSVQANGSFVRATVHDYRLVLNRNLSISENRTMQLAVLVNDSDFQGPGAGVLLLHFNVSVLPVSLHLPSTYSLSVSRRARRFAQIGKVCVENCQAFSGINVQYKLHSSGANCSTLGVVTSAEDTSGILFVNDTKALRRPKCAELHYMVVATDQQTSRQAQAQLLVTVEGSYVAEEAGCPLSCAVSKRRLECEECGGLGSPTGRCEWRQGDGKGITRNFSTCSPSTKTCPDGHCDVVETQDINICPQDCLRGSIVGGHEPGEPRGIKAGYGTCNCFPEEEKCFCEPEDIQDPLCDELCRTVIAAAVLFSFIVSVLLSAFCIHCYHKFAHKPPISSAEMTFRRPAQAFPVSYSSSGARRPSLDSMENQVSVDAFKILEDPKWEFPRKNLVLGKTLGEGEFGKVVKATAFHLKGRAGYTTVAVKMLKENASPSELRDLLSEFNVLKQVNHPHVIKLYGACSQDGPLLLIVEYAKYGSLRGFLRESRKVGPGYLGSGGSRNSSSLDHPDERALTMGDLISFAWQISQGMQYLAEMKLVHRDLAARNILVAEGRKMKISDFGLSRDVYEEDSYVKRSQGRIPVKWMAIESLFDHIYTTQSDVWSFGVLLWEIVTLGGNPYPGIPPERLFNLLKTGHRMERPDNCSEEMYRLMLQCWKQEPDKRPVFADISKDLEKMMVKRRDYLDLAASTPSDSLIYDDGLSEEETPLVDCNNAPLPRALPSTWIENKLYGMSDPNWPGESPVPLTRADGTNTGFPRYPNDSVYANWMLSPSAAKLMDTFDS
In another assay the target is Abl (Homo sapiens, UniProt P00519). The description is as above. In kind it is biochemical. Further details: purchased Millipore (assay service). As to conditions: estimated from inhibition at three compound concentrations; ATP at the Km. As to the method:
as §1, §2

For assay [1], the system named is A172 brain cancer cell line. The assay is described as follows: Cell growth inhibition, SRB assay, extended panel. Particulars: Homo sapiens, A 172, read-out: GI50 Range, A172. In kind it is cell-based. As to the method: (§4) Breast cancer cells (MCF-7, MDA-MB-468, HCC1954), colon cancer cells (SW620) and lung cancer cells (A549), together with human mammary epithelial primary cells (HMEC), were seeded (1000 to 4000 per 80 μl per well depending on the cell growth rate) into 96 well plates, 24 hours before compound overlay. Compounds were prepared as 10 mM stock solutions in 100% DMSO which were diluted with DMEM (Dulbecco's Modified Eagle's Medium) cell growth Medium (Invitrogen, Burlington, ON, Canada) containing 10% FBS (Fetal Bovine Serum) to concentrations ranging from 50 nM to 250 μM. Aliquots (20 μl) from each concentration were overlaid to 80 μl of the pre-seeded cells in the 96 well plates to make final concentrations of 10 nM to 50 μM. The cells were cultured for 5 days before the Sulforhodamine B assay (SRB) was performed to determine the compound's cell growth inhibition activity.
(§5) Sulforhodamine B (purchased from Sigma, Oakville, ON, Canada) is a water-soluble dye that binds to the basic amino acids of the cellular proteins. Thus, colorimetric measurement of the bound dye provides an estimate of the total protein mass that is related to the cell number. the cells are fixed in situ by gently aspirating off the culture media and adding 50 μl ice cold 10% Tri-chloroacetic Acid (TCA) per well and incubate at 4° C. for 30-60 min, The plates are washed with water five times and allowed to air dry for 5 min. Addition of 50 μl 0.4% (w/v) SRB solution in 1% (v/v) acetic acid to each well and incubatation for 30 min at RT completes the staining reaction. Following staining, plates are washed four times with 1% acetic acid to remove unbound dye and then allowed to air dry for 5 min. The stain is solubilized with 100 μl of 10 mM Tris pH10.5 per well. Absorbance is read at 570 nm.
(§6) The percentage (%) of relative growth inhibition was calculated by comparing to DMSO treated only cells (100%). GI50's were determined for compounds with cytotoxic activity. The GI50 was calculated using GraphPad PRISM software (GraphPad Software, Inc., San Diego, Calif., USA).
(§7) In addition to the cell lines tested as described above, selected compounds have been assayed against an extended panel. […] The sulforhodamine B assay (SRB) described above was use to assay test compounds against the extended panel (Table 9).

Assay [2] relates to HCT116+/+ colon cancer cell line. The assay is described as follows: Cell growth inhibition, SRB assay, extended panel. In kind it is cell-based. Particulars: Homo sapiens, HCT-116, read-out: GI50 Range, HCT116+/+. The method, then:
as §4, §5, §6, §7

For another assay, the target named is T3, CHK1 (Homo sapiens, UniProt O14757).
T3 construct: CEREP, France (ran the assays)
T3 sequence (O14757 1-476): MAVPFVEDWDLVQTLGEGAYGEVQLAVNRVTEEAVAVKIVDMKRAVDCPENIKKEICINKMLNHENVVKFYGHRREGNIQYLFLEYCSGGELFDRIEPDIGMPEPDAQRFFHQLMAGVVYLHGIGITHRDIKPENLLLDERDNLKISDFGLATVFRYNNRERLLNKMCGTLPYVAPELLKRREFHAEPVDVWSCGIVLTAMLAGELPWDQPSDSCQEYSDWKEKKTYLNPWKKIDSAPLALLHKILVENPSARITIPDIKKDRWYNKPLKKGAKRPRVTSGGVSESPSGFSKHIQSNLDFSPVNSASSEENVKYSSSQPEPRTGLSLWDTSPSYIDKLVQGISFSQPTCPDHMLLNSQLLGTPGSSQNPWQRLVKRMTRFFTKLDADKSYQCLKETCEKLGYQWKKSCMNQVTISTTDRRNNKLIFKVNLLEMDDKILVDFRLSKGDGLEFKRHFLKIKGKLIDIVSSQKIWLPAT
As to the kind of experiment: Kinase Selectivity Assay (CEREP, HTRF). Type of assay: biochemical. Particulars: read-out: % Inhibition at 10 μM Concentration, CHK1. As to the method: as §3

The next assay has as its target PKCb1 (Homo sapiens, UniProt P05771). As to the kind of experiment: Kinase Selectivity Assay (CEREP, HTRF). Type of assay: biochemical. Particulars: read-out: % Inhibition at 10 μM Concentration, PKCbeta 1. The method, then: as §3
The next assay addresses T4, CSK (Homo sapiens, UniProt P41240).
T4 construct: CEREP, France (ran the assays)
The assay is described as follows: Kinase Selectivity Assay (CEREP, HTRF). Particulars: read-out: % Inhibition at 10 μM Concentration, CSK. Type of assay: biochemical. The method, then:
as §3

PKCb1, sequence (P05771 whole entry): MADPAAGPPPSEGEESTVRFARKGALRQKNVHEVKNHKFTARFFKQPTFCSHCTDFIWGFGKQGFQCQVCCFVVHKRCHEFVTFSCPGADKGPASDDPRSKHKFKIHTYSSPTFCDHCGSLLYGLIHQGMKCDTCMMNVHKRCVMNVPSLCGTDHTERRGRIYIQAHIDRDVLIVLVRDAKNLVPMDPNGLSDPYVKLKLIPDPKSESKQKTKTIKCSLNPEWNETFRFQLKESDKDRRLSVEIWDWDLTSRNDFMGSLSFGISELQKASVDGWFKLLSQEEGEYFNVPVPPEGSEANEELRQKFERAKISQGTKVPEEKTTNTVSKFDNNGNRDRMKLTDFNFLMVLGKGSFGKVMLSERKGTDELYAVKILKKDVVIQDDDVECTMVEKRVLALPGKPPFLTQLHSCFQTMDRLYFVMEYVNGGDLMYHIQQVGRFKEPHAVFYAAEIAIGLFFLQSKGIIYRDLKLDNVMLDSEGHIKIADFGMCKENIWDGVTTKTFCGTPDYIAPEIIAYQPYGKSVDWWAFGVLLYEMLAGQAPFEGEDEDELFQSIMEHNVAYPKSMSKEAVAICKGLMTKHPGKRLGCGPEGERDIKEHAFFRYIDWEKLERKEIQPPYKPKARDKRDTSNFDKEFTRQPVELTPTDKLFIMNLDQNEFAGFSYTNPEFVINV
Lyn, sequence (P07948 whole entry): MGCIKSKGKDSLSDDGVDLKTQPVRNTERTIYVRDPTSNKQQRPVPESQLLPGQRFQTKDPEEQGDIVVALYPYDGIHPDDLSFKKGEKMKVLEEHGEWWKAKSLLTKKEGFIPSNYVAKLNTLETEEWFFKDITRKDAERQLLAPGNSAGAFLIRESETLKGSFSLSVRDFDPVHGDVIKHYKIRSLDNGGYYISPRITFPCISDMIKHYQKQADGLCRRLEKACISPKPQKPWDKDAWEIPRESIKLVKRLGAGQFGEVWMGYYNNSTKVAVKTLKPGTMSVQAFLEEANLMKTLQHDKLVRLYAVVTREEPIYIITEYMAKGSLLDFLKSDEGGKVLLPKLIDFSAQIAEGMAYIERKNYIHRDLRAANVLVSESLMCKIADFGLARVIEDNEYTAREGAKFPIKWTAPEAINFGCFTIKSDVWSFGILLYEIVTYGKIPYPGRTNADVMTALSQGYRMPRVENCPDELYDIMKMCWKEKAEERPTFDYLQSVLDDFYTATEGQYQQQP
T2 sequence (P09619 33-1106): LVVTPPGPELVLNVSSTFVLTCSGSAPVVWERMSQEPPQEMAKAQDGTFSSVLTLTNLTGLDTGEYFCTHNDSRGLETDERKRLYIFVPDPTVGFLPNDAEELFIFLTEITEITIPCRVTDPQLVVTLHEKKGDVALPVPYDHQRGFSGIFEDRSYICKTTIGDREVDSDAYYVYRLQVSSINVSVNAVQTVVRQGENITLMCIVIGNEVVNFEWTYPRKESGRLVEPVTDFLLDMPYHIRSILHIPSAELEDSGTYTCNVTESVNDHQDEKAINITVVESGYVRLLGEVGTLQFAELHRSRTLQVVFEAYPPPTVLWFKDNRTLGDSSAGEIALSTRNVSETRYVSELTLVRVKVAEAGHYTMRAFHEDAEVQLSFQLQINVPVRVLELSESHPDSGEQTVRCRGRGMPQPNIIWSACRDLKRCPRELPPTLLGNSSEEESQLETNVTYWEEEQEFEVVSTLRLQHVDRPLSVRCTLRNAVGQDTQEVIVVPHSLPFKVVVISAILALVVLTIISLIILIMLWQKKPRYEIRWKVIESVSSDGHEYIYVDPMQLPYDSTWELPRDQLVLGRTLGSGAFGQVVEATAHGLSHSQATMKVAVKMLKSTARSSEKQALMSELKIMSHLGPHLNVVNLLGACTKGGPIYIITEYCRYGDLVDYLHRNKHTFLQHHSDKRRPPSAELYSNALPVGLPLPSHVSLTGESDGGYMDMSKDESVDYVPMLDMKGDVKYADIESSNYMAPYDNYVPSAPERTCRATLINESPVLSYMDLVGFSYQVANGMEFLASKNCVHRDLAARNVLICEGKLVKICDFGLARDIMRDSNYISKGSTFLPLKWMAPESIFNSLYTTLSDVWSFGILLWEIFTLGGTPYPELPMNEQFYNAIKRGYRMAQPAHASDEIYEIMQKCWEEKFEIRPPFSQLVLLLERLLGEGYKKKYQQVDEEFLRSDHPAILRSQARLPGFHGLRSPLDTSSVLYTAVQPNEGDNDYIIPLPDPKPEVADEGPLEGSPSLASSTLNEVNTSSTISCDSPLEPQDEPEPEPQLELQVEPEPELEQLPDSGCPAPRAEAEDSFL
T4 sequence (P41240 whole entry): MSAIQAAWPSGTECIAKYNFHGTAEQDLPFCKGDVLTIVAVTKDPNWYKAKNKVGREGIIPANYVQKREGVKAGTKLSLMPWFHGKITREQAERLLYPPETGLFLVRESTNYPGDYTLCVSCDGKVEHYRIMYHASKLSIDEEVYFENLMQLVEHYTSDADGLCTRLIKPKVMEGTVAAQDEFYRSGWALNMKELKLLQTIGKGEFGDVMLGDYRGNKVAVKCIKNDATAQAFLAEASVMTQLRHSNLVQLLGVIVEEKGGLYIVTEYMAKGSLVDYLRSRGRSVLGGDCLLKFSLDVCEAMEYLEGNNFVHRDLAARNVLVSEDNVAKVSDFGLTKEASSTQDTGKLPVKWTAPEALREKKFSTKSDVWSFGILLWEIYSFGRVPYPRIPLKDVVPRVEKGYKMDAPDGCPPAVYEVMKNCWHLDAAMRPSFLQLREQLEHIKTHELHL
Abl, sequence (P00519 whole entry): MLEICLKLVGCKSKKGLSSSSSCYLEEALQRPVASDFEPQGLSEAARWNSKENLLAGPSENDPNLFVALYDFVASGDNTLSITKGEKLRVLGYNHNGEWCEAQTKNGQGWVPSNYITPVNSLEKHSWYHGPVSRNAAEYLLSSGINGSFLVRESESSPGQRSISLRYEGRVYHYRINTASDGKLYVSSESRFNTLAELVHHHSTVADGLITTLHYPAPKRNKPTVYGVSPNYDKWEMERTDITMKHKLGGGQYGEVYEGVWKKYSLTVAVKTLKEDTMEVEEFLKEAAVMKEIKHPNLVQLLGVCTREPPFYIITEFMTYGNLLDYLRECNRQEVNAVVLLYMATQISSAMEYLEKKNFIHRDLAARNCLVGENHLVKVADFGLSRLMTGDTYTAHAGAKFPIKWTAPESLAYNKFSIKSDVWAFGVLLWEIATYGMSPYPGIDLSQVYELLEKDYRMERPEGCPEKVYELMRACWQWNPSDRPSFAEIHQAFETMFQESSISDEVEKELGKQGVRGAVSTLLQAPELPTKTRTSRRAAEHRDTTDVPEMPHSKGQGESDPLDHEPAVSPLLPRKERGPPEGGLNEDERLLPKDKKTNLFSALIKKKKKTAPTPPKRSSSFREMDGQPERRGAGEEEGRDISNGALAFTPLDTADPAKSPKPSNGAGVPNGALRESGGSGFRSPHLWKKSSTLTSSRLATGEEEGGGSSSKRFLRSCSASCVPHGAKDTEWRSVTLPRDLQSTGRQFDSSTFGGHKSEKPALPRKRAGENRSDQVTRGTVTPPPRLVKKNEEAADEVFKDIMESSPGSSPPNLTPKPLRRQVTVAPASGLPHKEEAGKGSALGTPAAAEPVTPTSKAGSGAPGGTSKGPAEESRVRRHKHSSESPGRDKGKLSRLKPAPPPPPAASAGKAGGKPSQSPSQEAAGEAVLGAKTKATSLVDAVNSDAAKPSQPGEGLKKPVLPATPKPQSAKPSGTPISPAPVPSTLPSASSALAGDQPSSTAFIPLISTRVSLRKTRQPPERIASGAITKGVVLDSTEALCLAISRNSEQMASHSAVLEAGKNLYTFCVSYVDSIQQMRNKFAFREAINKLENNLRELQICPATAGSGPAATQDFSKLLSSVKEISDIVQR

As to `O=C1Nc2ccccc2C1=Cc1ccc2c(/C=C/c3ccccn3)n[nH]c2c1` (mixture of isomers) [Example A41, (E and Z)-3-((3-((E)-2-(pyridin-2-yl)vinyl)-1H-indazol-6-yl)methylene)indolin-2-one], the IC50 at FLT-1, at FGFR1, on PDGFRβ, at TRKA, at Lyn and at Ret was under 5 µM throughout. Further, on Abl, the IC50 was under 5 µM. The “% Inhibition at 10 μM Concentration, AMPKalpha” value (“% Inhibition” for short) in the assay with AMPKa turned out to be 81%. In addition, the GI50 in [1] was under 5 µM; in [2], over 50 µM. Moreover, the results for the inhibition at 10 µM at CHK1, on PKCb1 and on CSK were 7%, -2% and 86%, respectively.
Turning to `COc1ccc2c(c1)C(=Cc1ccc3c(-c4ccc(N5CCN(C)CC5)nc4)n[nH]c3c1)C(=O)N2` (mixture of isomers) [Example A97, (E and Z)-5-methoxy-3-((3-(6-(4-methylpiperazin-1-yl)pyridin-3-yl)-1H-indazol-6-yl)methylene)indolin-2-one], the IC50 was under 5 µM at FLT-1; under 5 µM at FGFR1; 5 to 50 µM on PDGFRβ; under 5 µM at TRKA; 5 to 50 µM at Lyn; under 5 µM at Ret. Moreover, the IC50 at Abl is under 5 µM. Moreover, in the assay with AMPKa, the “% Inhibition” value worked out at 76%. Besides, in assay [2], the GI50 was under 5 µM. For the same molecule, the inhibition at 10 µM at CHK1 amounted to 3%; on PKCb1, 2%; at CSK it was 51%.
On to `CN(C)Cc1ccc(/C=C/c2n[nH]c3cc(C=C4C(=O)Nc5ccccc54)ccc23)cc1` (mixture of isomers) [Example A106, (E and Z)-3-[(3-{(E)-2-[4-((dimethylamino)methyl)-phenyl]-ethenyl}-1H-indazol-6-yl)methylidene]-1,3-dihydro-2H-indol-2-one 2,2,2-trifluoroacetate], for which the IC50 on FLT-1, on FGFR1, on PDGFRβ, at TRKA, at Lyn and on Ret was under 5 µM each time. For the same molecule, the IC50 on Abl is under 5 µM.
With `CN1CCN(c2ccc(/C=C/c3n[nH]c4cc(C=C5C(=O)Nc6ccccc65)ccc34)cn2)CC1` (mixture of isomers) [Example A108, (E and Z)-3-((3-((E)-2-(6-(4-methylpiperazin-1-yl)pyridin-3-yl)vinyl)-1H-indazol-6-yl)methylene)indolin-2-one], the GI50 in assay [1] and in assay [2] was under 5 µM throughout.
On to `O=C1Nc2ncc(Br)cc2C1=Cc1ccc2c(/C=C/c3ccncc3)n[nH]c2c1` (mixture of isomers) [Example A109, (E and Z)-5-bromo-3-((3-((E)-2-(pyridin-4-yl)vinyl)-1H-indazol-6-yl)methyl-ene)-1H-pyrrolo[2,3-b]pyridin-2(3H)-one], for which the GI50 in assay [1] and in assay [2] was under 5 µM throughout.
As to `O=C1Nc2ccccc2/C1=C\c1ccc2[nH]nnc2c1` [Example A1, (E)-3-((1H-benzo[d][1,2,3]triazol-5-yl)methylene)indolin-2-one], in the assay with AMPKa, the “% Inhibition” value is listed as 15%. The inhibition at 10 µM on CHK1 is -6%; on PKCb1, 1%; at CSK it was 8%.
For `O=C1Nc2ccccc2/C1=C\c1ccc2cn[nH]c2c1` [Example A5, (E)-3-((1H-indazol-6-yl)methylene)indolin-2-one] the same measures were 54%, -2%, -5% and 5%.
Regarding `O=C1Nc2ccccc2/C1=C\c1ccc2c(/C=C/c3ccccc3Cl)n[nH]c2c1` [Example A60, (E)-3-((3-((E)-2-chlorostyryl)-1H-indazol-6-yl)methylene)indolin-2-one], the “% Inhibition” value with AMPKa is recorded as 8%. Besides, the inhibition at 10 µM was -1% on CHK1, 0% on PKCb1 and 17% on CSK.

Broadly, the IC50 is the concentration that inhibits the measured activity by half. Broadly, the % Inhibition is the drop in the measured response relative to a control, in per cent. A high value points to a strong effect.

Values taken from patent publication US8765748B2, “Indazolyl, benzimidazolyl, benzotriazolyl substituted indolinone derivatives as kinase inhibitors useful in the treatment of cancer” (University Health Network, priority 2007, dated 2014).
